From ChEMBL document CHEMBL1201862, “PubChem BioAssay data set” (2004)
The source made the active and inactive calls. For most assays here, no stated cut-off is given here; in the data, actives have a measured EC50 and inactives only a lower limit.

Key:
[1] = DRD fibroblast viability loss – cell-based, non-viral oncogenic, luminescence, dose response (AID 1934); assay type: functional; details: Homo sapiens
[2] = molecular target: T1, Replicative DNA helicase DnaB (Mycobacterium tuberculosis, UniProt P9WMR3); experiment: DnaB intein splicing inhibitors, dose response, biochemical, cell-free fluorescence (AID 449749); assay type: functional
T1 sequence (P9WMR3 whole entry): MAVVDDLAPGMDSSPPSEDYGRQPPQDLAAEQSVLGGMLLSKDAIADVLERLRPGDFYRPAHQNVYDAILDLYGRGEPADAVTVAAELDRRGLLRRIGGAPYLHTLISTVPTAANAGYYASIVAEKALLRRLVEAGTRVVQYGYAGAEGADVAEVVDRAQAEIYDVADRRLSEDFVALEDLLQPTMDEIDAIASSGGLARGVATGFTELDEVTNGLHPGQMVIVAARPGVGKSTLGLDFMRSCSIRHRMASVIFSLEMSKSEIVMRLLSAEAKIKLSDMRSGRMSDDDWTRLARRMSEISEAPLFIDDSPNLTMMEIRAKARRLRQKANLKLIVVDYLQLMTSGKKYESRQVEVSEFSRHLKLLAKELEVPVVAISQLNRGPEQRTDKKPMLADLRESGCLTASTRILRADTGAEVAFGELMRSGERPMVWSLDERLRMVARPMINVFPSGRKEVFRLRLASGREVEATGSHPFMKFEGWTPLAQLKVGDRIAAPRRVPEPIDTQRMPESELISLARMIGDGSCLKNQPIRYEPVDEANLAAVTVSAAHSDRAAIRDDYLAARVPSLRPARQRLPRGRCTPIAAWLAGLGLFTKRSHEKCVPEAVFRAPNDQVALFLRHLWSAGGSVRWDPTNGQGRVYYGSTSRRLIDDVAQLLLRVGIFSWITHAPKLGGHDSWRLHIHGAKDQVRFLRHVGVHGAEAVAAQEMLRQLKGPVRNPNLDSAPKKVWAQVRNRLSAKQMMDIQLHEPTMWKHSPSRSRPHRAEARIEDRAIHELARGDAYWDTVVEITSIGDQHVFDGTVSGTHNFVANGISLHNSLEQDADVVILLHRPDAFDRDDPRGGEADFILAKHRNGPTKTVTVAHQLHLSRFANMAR

BJ [3] = experiment: cells; assay type: functional, cell-based; details: Homo sapiens
BJ [4] = experiment: BJ-TERT fibroblast viability loss – cell-based, RAS-independent, luminescence, dose response (AID 1933); assay type: functional; details: Homo sapiens
BJ [5] = experiment: BJ-TERT-LT-ST fibroblast viability loss – cell-based, RAS-independent, luminescence, dose response (AID 1935); assay type: functional; details: Homo sapiens;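 further: BJ fibroblasts immortalized with TERT plus LT and ST oncogenes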
BJ [6] = experiment: growth inhibition of engineered Ras-driven BJ cells – cell-based, alamar blue fluorescence, cherrypicked samples, dose response (AID 2631); assay type: functional; details: Homo sapiens;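 further: confirmatory dose-response assay in RAS-dependent BJ fibroblasts engineered with TERT, LT and ST, with cytotoxicity read by fluorescence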
Protein RecA = molecular target: T2, Protein RecA (Mycobacterium tuberculosis, UniProt P9WHJ3); experiment: Fluorescence Cell-Free Homogeneous Dose Retest to Identify Inhibitors of RecA-Intein Splicing Activity. [Related pubchem assays (depositor defined):AID2097, AID2223, AID489010, AID492950]; assay type: functional
T2 sequence (P9WHJ3 whole entry): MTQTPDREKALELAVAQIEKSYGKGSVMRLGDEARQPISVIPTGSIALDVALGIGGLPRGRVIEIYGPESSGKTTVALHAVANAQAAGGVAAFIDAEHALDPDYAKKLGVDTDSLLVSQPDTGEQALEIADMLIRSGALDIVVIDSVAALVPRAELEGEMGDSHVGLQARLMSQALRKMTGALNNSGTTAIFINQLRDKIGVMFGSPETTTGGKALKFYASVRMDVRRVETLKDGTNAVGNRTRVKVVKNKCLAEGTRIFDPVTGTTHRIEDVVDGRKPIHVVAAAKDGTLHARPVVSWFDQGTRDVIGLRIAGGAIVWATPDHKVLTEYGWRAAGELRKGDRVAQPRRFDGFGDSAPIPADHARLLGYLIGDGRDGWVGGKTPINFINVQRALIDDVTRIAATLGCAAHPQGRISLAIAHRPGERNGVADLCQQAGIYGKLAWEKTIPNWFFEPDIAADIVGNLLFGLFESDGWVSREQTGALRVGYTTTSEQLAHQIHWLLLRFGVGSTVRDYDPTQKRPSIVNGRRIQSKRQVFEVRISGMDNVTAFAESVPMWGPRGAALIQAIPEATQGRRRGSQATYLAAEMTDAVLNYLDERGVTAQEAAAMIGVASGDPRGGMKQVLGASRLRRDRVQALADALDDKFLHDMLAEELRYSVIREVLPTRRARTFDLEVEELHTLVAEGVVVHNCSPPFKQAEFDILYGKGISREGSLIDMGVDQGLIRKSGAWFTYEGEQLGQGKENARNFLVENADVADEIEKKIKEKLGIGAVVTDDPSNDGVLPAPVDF

[7] = molecular target: T3, Ubiquitin-conjugating enzyme E2 N (Homo sapiens, UniProt P61088); assay type: functional;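 further: Dose-response confirmation in a TR-FRET assay detecting UBC13-driven polyubiquitin chain formation, inhibition measured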
T3 sequence (P61088 whole entry): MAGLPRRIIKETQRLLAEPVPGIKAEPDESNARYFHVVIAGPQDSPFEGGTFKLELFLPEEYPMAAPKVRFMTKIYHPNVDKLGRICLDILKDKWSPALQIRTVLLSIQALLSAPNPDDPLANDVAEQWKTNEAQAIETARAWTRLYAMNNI

INS1 = experiment: INS-1E survival protection against cytokine death – cell-based, luminescence, retest, dose response (AID 449756); assay type: functional; details: Rattus norvegicus;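 further: cell death triggered by IL-1 beta plus TNF-alpha plus IFN-gamma mixture; protective hits raise ATP signal compared with cytokine alone wells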
[8] = molecular target: T4, DNA repair protein RAD52 homolog (Homo sapiens, UniProt P43351); assay type: functional, biochemical
T4 sequence (P43351 whole entry): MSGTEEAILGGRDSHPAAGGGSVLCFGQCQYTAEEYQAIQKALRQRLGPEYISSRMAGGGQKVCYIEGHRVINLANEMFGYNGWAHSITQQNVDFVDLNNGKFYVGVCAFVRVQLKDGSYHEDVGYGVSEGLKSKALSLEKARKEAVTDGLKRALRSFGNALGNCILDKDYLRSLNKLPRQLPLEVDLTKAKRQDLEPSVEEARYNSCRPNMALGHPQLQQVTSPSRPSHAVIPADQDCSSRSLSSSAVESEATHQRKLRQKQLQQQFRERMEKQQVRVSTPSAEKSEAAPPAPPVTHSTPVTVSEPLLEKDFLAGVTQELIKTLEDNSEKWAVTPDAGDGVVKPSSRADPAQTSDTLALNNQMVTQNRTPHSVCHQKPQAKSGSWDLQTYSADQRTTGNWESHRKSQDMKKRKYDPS

[9] = molecular target: T5, Apoptotic protease-activating factor 1 (Homo sapiens, UniProt O14727); assay type: functional
T5 sequence (O14727 whole entry): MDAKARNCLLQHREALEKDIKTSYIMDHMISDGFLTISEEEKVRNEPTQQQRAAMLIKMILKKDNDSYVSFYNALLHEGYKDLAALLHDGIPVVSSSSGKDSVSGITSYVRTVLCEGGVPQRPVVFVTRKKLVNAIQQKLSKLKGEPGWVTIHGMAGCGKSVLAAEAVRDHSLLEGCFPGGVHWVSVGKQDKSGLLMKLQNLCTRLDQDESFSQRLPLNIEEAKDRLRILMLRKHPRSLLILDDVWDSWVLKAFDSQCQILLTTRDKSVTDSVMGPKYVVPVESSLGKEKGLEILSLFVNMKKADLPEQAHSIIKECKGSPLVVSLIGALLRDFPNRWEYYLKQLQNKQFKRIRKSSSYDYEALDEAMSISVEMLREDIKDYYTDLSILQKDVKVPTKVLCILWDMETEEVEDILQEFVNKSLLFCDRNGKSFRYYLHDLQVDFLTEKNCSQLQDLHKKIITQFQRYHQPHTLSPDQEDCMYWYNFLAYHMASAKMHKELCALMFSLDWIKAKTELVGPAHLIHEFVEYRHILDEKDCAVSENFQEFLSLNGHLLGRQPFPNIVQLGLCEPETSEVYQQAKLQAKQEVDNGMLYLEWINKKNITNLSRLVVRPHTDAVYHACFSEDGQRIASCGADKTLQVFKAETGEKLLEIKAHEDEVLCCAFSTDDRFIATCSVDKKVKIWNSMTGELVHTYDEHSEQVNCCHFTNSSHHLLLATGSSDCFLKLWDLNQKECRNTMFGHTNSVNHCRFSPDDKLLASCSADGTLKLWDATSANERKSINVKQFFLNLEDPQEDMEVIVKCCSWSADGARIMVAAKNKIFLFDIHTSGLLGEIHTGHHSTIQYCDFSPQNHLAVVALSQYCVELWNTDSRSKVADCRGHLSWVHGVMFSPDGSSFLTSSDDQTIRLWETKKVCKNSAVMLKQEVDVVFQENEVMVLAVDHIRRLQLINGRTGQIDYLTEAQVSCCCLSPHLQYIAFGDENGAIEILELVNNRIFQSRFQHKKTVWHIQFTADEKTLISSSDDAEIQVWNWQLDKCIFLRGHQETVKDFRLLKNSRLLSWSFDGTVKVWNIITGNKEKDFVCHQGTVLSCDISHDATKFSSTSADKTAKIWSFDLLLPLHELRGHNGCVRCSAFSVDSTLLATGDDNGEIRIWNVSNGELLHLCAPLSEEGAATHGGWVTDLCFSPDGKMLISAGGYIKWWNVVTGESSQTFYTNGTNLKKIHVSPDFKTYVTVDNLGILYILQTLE

Vero = experiment: viability of Vero cells under compound – cytotoxicity control for flavivirus capping enzyme inhibitors (AID 588742); assay type: functional; details: Chlorocebus sabaeus
Streptokinase A = molecular target: T6, Streptokinase A (Streptococcus pyogenes serotype M1, UniProt P10520); experiment: viability-normalized secreted streptokinase activity reduction – plasminogen activation absorbance, OD405, dose response (AID 1914); assay type: functional, Streptococcus pyogenes M1 GAS;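 further: secreted streptokinase activity via plasminogen activation per viability signal from cell pellet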
T6 sequence (P10520 whole entry): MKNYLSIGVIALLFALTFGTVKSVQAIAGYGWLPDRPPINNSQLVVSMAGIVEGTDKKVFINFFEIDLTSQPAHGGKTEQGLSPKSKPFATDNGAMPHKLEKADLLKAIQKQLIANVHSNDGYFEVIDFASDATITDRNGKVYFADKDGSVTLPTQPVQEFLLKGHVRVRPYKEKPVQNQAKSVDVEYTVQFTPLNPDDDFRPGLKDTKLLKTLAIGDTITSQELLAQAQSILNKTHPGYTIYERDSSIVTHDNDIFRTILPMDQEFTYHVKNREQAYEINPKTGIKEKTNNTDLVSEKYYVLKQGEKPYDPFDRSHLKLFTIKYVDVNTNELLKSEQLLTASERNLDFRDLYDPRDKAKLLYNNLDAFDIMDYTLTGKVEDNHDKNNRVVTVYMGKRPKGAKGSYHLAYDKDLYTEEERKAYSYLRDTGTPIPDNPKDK

[10] = tested on: Streptococcus sp. 'group A'; experiment: Streptococcus pyogenes SK(-)GAS viability under kanamycin – luminescence, BacTiterGlo, confirmation, counter-screen for streptokinase expression inhibitor project, dose response (AID 1900); assay type: functional, organism-based
Streptococcus = experiment: GAS UMAA2166 growth inhibition – luminescence, BacTiterGlo, counter-screen for streptokinase expression inhibitor project, dose response (AID 1915); assay type: functional, organism-based;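 further: potency for reduction of bacterial viability or growth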

Compound	EC50 [1]	EC50 (BJ [3])	EC50 (BJ [4])	EC50 (BJ [5])	EC50 (BJ [6])	CC50 (Vero)	further results
CCSc1cc(C2C(C#N)=C(N)Oc3[nH]nc(C)c32)c(C)o1 (stereo unspecified)	14.7 µM (active)	17.7 µM (active)	25.5 µM (active)	> 150 µM (not active)	8.45 µM (active)	–	AC50 [2]: 10.3 µM (active); EC50 (Protein RecA): 3.29 µM (active)
COc1ccc(C2c3ccc4ccccc4c3Oc3ncn(CCCN(C)C)c(=N)c32)cc1 (stereo unspecified)	4.43 µM (active)	7.71 µM (active)	5.07 µM (inconclusive)	4.18 µM (active)	2.86 µM (inconclusive)	–	IC50 [7]: > 20 µM (inactive); AC50 (INS1): 7.32 µM (active); AC50 [8]: 2.33 µM (active)
CCc1ccc(NC(=S)Nc2cccc3cnccc23)cc1	–	–	–	–	–	–	IC50 [9]: 20 µM (active)
CCCN1C(=O)/C(=C\C=C2/C=CN(CC)c3ccccc32)SC1=S	–	–	–	–	–	> 40 µM (active)	–
COc1ccc(NC(S)=NNc2ccc([N+](=O)[O-])cc2S(=O)(=O)Nc2ccc(C)cc2C)cc1	–	–	–	–	–	12.2 µM (active)	EC50 (Streptokinase A): > 150 µM (not active); EC50 [10]: 6.57 µM (active); EC50 (Streptococcus): 37.7 µM (active)
